Here are results for five compounds from article PMC7281349, “Anti-Inflammatory and Protein Tyrosine Phosphatase 1B Inhibitory Metabolites from the Antarctic Marine-Derived Fungal Strain Penicillium glabrum SF-7123” (Marine Drugs, 2020).

Assay [1] relates to LPS-stimulated BV2 microglial cells. Nature of the assay: PGE2 production in LPS-stimulated BV2 cells. The assay is classed as cell-based, murine. As to conditions: Mus musculus, BV-2, mean ± SD of triplicate experiments, read-out: PGE2 Inhibitory Effects, BV2 Cells (IC50). The source says: (§1) LPS is a major cell wall component of Gram-negative bacteria. LPS is an intensive stimulator of macrophages and microglia, and thus treatment of these cells with LPS is frequently employed in research related to the inflammatory phenomenon. In the current study, all the isolated compounds (1–5) were investigated for their anti-neuroinflammatory and anti-inflammatory effects by examining their effects on the overproduction of NO and PGE2 in LPS-stimulated BV2 microglia and RAW264.7 macrophage cells. LPS stimulation increased the production of NO and PGE2 in both cell lines. […] Thus, this compound was selected to further examine the anti-inflammatory effect and to reveal its underlying mechanisms. […] Moreover, compound 2 attenuated the protein expression of iNOS and COX-2 in a dose-dependent manner in LPS-stimulated BV2 cells (Figure 3A).
(§2) RAW264.7 and BV2 cells were maintained at 5 × 10^5 cells/mL in Dulbecco’s modified Eagle’s medium (DMEM) containing 10% fetal bovine serum (FBS), penicillin G (100 U/mL), streptomycin (100 mg/L), and L-glutamine (2 mM) and incubated at 37 °C in a humidified atmosphere containing 5% CO2. DMEM, FBS, and other tissue culture reagents were purchased from Gibco BRL Co. Cell viability was evaluated by the MTT assay as described in our previous report.
The level of PGE2 present in each sample was determined using a commercially available kit from R&D Systems (Minneapolis, MN, USA); the details of this assay were described previously. Three independent assays were performed according to the manufacturer’s instructions.

The test system is the same in assay [2]. Nature of the assay: NO production (nitrite, Griess reaction) in LPS-stimulated BV2 microglial cells. The assay is classed as cell-based, murine. Particulars: for Effect on alteration of NO production: 80.0 μM; for IC50: Mus musculus, BV-2, mean ± SD of triplicate experiments, read-out: NO Inhibitory Effects, BV2 Cells (IC50).
From the text: as §1, §2
To determine the nitrite concentration in the medium as an indicator of NO production, the Griess reaction was carried out as described in our previous report.
On the technique in general: The Griess reaction detects nitrite, a stable product of nitric oxide.

The target of assay [3] is T1, PTP1B (human, recombinant) (Homo sapiens, UniProt P18031).
T1 construct: purchased BIOMOL Research Laboratories, Inc
T1 sequence (P18031 1-435): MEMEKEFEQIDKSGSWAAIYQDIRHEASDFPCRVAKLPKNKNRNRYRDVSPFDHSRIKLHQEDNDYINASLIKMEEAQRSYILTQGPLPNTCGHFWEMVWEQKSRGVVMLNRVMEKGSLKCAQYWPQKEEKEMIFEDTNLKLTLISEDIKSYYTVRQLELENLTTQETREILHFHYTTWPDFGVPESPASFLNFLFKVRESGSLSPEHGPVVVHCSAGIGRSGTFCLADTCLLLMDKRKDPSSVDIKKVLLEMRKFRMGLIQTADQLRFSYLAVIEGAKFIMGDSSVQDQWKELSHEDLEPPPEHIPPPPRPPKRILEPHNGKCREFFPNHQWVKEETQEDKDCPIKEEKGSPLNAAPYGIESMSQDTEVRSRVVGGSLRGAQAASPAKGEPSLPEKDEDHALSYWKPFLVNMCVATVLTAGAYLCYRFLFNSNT
Nature of the assay: PTP1B enzyme assay with pNPP substrate. As to conditions: for inhibition at 50 µM: 50 μM compound, read-out: Inhibitory Effects on PTP1B, inhibition percentage at 50 μM; for inhibition at 50 µM / IC50: pNPP substrate; for Mode of PTP1B inhibition (Lineweaver–Burk plot): pNPP 0.25-2.0 mM, Km and Vmax analysis; for IC50: mean ± SD of triplicate experiments, read-out: Inhibitory Effects on PTP1B (IC50). Format: biochemical. The method, then:
In addition to the investigation of the anti-inflammatory and anti-neuroinflammatory effects of the isolated metabolites in cellular models, this study attempted to assess the inhibitory effect of the isolated compounds against PTP1B activity.
PTP1B (human, recombinant) used in the current study was purchased from BIOMOL Research Laboratories, Inc. PTP1B enzyme activity was determined using 2 mM of pNPP as a substrate in 50 mM citrate buffer solution (pH 6.0, 0.1 M NaCl, 1 mM EDTA, and 1 mM dithiothreitol). The reaction mixture was incubated at 30 °C for 30 min, and the reaction was terminated by the addition of 1 N NaOH. The amount of p-nitrophenol produced by the enzyme was estimated by measuring the increase in absorbance at 405 nm. The nonenzymatic hydrolysis of 2 mM pNPP was corrected by measuring the increase in absorbance at 405 nm in the absence of PTP1B [31]. The kinetic analysis involved the following: the assays were performed using a reaction mixture that contained different concentrations of pNPP (0.25 mM, 0.5 mM, 1.0 mM, and 2.0 mM) as a PTP1B substrate in the absence or presence of compounds 4 and 5. The Michaelis–Menten constant (Km) and maximum velocity (Vmax) of PTP1B were determined by the Lineweaver–Burk plot using the GraphPad Prism® 4 program (GraphPad Software Inc., San Diego, CA, USA).

Assay [4] relates to NF-κB pathway in LPS-stimulated BV2 cells. Nature of the assay: NF-κB pathway activation (western blot, DNA-binding ELISA) in LPS-stimulated BV2 cells. The assay is classed as cell-based, murine. As to the method:
After pre-treatment with compound 2 (1.0, 2.0, and 4.0 μM) for 3 h, the cells were stimulated with LPS for 1 h. (A–F) Proteins were obtained, and specific anti-IκB-α, anti-p- IκB-α, anti-p65, and anti-p50 antibodies were employed for western blot analysis. Representative blots of three independent experiments are shown. Band intensity was quantified by densitometry and normalized to β-actin for the cytoplasmic fraction and to proliferating cell nuclear antigen (PCNA) for the nuclear fraction. (G, H) NF-κB binding activity in the nuclear fraction was determined using an NF-κB ELISA kit by Active Motif (* p < 0.05; ** p < 0.01; *** p < 0.001) and then compared to that of the LPS-treated group.
Western blot analysis was carried out according to our previous report. Briefly, cells were harvested by centrifugation at 200 g for 3 min, followed by a washing step with RIPA lysis buffer (25 mM Tris-HCl buffer (pH 7.6), 150 mM NaCl, 1% NP-40, 1% sodium deoxycholate, and 0.1% SDS). […]
The DNA-binding activity of NF-κB in the nuclear extracts was measured using the TransAM® kit (Active Motif, Carlsbad, CA, USA); three independent assays for each sample were conducted according to the manufacturer’s instructions.
For orientation: In western blotting, separated proteins are transferred to a membrane and probed.

For assay [5], the system named is MAPK pathways (ERK, JNK, p38 MAPK) in LPS-stimulated BV2 cells. The experiment in a line: MAPK phosphorylation (western blot) in LPS-stimulated BV2 cells. Format: cell-based, murine. As to conditions: 1.0, 2.0, 4.0 μM pre-treatment 3 h, LPS 1 h. The method, then: After pre-treatment with compound 2 (1.0, 2.0, and 4.0 μM) for 3 h, the cells were stimulated with LPS for 1 h. Western blot analysis was performed to determine the phosphorylated levels of extracellular signal-regulated kinases (ERK) (p-ERK), c-Jun N-terminal kinases (JNK) (p-JNK), and p38 MAPK (p-p38 MAPK). Representative blots of three independent experiments are shown. Band intensity was quantified by densitometry and normalized to β-actin. * p < 0.05; *** p < 0.001 as compared to the LPS-treated group.
(§3) Western blot analysis was carried out according to our previous report. Briefly, cells were harvested by centrifugation at 200 g for 3 min, followed by a washing step with RIPA lysis buffer (25 mM Tris-HCl buffer (pH 7.6), 150 mM NaCl, 1% NP-40, 1% sodium deoxycholate, and 0.1% SDS). Primary antibodies (COX-2: sc-1745; iNOS: sc-650; IкB-α: sc-371; p-IкB-α: sc-8404; p50: sc-7178; and p65: sc-8008) were purchased from Santa Cruz Biotechnology, and secondary antibodies (mouse: ap124p; goat: ap106p; and rabbit: ap132p) were purchased from Millipore.

The test system of assay [6] is iNOS and COX-2 protein expression in LPS-stimulated BV2 cells. Nature of the assay: Western blot of iNOS and COX-2 in LPS-stimulated BV2 cells. The assay is classed as cell-based, murine. Particulars: 1.0, 2.0, 4.0 μM, dose-dependent, LPS 1 μg/mL 24 h. As to the method:
Cells were pre-treated with compound 2 (1.0, 2.0, and 4.0 μM) for 3 h and stimulated with LPS (1 μg/mL) for 24 h. The representative blots of three independent analyses for iNOS and COX-2 expression are shown.
as §3

Assay [7] concerns PC12 pheochromocytoma cells. The arrangement: method as in doi:10.1002/1099-0690(200105)2001:10<1963::AID-EJOC1963>3.0.CO. Particulars: cited from earlier work.
Assay [8] has as its system IL-1β, TNF-α, IL-6, IL-12 mRNA in LPS-stimulated BV2 cells. The experiment in a line: qRT-PCR of pro-inflammatory cytokine mRNA in LPS-stimulated BV2 cells. The assay is classed as cell-based, murine. Particulars: 3 h pre-treatment, LPS 1 µg/mL for 12 h. On the technique in general: Quantitative PCR measures a nucleic acid by following its amplification.
A further assay deals with endothelin binding. As to conditions: cited from earlier work.
The test system of a further assay is HIV-1-integrase. Particulars: cited from earlier work.

Regarding `COc1cc2c(cc1O)OCC1=C2O[C@@H](C)CC1=O` [Compound 1, 9-O-methylneuchromenin], the IC50 (usually the concentration needed to halve the response being measured) in assay [1] was over 80 µM. Moreover, in [2], the “Effect on alteration of NO production” value is recorded as “did not significantly affect” and the IC50 is over 80 µM. Besides, in [3], the inhibition – broadly, the percentage by which the read-out fell short of the control – at 50 µM was 45.7%.
Regarding `C[C@H]1CC(=O)C2=C(O1)c1cc(O)c(O)cc1OC2` [Compound 2, neuchromenin], the IC50 in [1] amounted to 3.2 ± 0.2 µM; in assay [2] it was 2.7 ± 0.1 µM. The “Activation of the NF-κB pathway (IκB-α phosphorylation/degradation, p50/p65 nuclear translocation)” value in assay [4] (1.0, 2.0, 4.0 μM pre-treatment 3 h, LPS 1 h) is “suppressed”. For the same compound, in assay [4] (nuclear fraction, NF-κB ELISA kit), the “DNA binding activity of the p65 subunit” value is listed as “decreased”. Also, the “Increased phosphorylation levels of ERK and JNK MAPKs” value in assay [5] is given as “unchanged”. The “LPS-induced p38 MAPK phosphorylation” value in [5] is on record as “inhibited”. Also, the “Protein expression of iNOS and COX-2” value in assay [6] was “attenuated”. Further, in [7], the “Neurite outgrowth in PC12 pheochromocytoma cells” value is on record as “induced neurite outgrowth”. Besides, the inhibition at 50 µM in assay [3] is 37.8%. Besides, the “mRNA over-expression of IL-1β, TNF-α, IL-6 and IL-12” value in [8] is listed as “effectively decreased”.
Take `COC(=O)c1cc(O)cc(OC)c1Oc1cc(C)cc(O)c1C(=O)O` [Compound 3, asterric acid]: in [1], the IC50 was over 80 µM. Also, the Endothelin binding inhibition entry with endothelin binding is listed as “endothelin binding inhibitor”. Further, in assay [2], the “Effect on alteration of NO production” value is recorded as “did not significantly affect” and the IC50 is over 80 µM. Besides, the inhibition at 50 µM in [3] was found to be 13.7%.
As for `CC1=Cc2oc3cc(O)c(O)cc3c(=O)c2CO1` [Compound 4, myxotrichin C], the figures for the IC50 in assay [1], in [2] and in assay [3] were 25.2 ± 1.3 µM, 28.1 ± 1.4 µM and 19.2 ± 1 µM, respectively. For the same compound, the “Mode of PTP1B inhibition (Lineweaver–Burk plot)” value in assay [3] is “noncompetitive inhibitor”.
Regarding `C/C=C/c1cc(=O)c(C(=O)c2c(OC)cc(OC)cc2C(=O)OC)co1` [Compound 5, deoxyfunicone], the IC50 in [1] stood at 32.3 ± 1.6 µM; in [2] it was 10.6 ± 0.5 µM; in [3], 24.3 ± 1.2 µM. For the same compound, in assay [3], the “Mode of PTP1B inhibition (Lineweaver–Burk plot)” value is reported as “competitive”. The HIV-1-integrase inhibition result in the assay with HIV-1-integrase was “HIV-1-integrase inhibitor”.
